Experimental findings from patent US20070231258A1, “Peptide conjugates” (KARYON CTT LTD., priority 2006, published 2007) are described below.

*1 amine or outer side, *2 acyl side, *3 side chain or, on linkers, in order; H or OH if unused. Bridges are numbered along the chain shown (N, C = ends). Primed or numbered codes have the meaning given here. [ ]: non-standard residue; d: D form. DTPA′ = diethylenetriaminepentaacetic acid chelator; NHCH2CH2SCH2CO = O=C(CSCCN[*:1])[*:2]; Cysteamide = C(CS[*:3])N[*:1]; AEEEA = NCCOCCOCCOCC(=O)O; AABz = not defined here

Data set [1] has as its system NIH3T3. The data set is described as follows: Cell binding assay of immobilized peptide conjugate (MTT detection). The class given is cell-based, mouse. The following applies: control cell line NIH3T3, wells coated at 30 μg/ml, 30 min 37° C. The procedure: The mouse fibroblast line NIH3T3, called herein also “NIH3T3”, has been described previously by Koga et al. in Gann, 1979, 70: 585-591. The cell line was cultured in DMEM medium adjusted to contain 2 mM L-glutamine, 1% penicillin/streptomycin, and 10% fetal bovine serum.
(§1) Preparation of plates for the assays. Wells of Reacti-Bind Maleimide activated clear strip plate (Pierce, Prod#. 15150) were coated with a peptide conjugate a*YGFVWGEE*-(Teg-E)2-EAT, Compound MJ013 prepared in Example 3, at a concentration of 30 μg/ml. The incubation was carried out overnight at 20° C. The binding buffer containing unbound peptide was re-moved from the wells.
(§2) The wells were blocked with blocking buffer (0.5% BSA, 0.05% Tween20 in phosphate buffer saline (PBS). PBS was prepared as follows: 40 g of NaCl, 1 g of KCl, 7 g of Na2HPO4×2H2O and 1 g of KH2PO4 were dissolved in […] of deionized H2O). Blank wells as controls were prepared by treating empty wells with blocking buffer. […]
(§3) Cell binding assay: 75000 cells in volume of 150 μl of medium were added into coated wells and were incubated for 30 min at 37° C. […] After formazan was solubilized by 10% SDS-0,01 M HCl, it was quantified with an ELISA spectrometer (ThermoLabsystems Multiscan EX) at 560 nm. […] The following day the absorbance of plate was measured at 560 nm with an ELISA-reader (ThermoLab-systems, Multiskan EX).

The subject of data set [2] is SVEC4-10. Described as above. The class given is cell-based, mouse. To be noted: control cell line SVEC4-10, wells coated at 30 μg/ml, 30 min 37° C. The procedure:
The mouse vascular endothelial cell line SVEC4-10, called herein also “SVEC4-10”, has been described previously by O'Connell et al. in J. Immunol., 1990, 144: 521-525. The cell line was cultured in DMEM medium adjusted to contain 2 mM L-glutamine, 1% penicillin/streptomycin, and 10% fetal bovine serum.
as §1, §2, §3

Data set [3] deals with HCT-15. The data set is described as above. The class given is cell-based, human. To be noted: HCT-15 cells, wells coated at 30 μg/ml, 30 min 37° C. The protocol:
The human colorectal cancer HCT-15 cell line (ATCC: CCL-225), called herein also “HCT-15”, was cultured in RPMI 1640 medium with 2 mM L-glutamine adjusted to contain 1.5 g/L sodium bicarbonate, 4.5 g/L glucose, 10 mM HEPES, and 1.0 mM sodium pyruvate, 1% penicillin/streptomycin, 10% fetal bovine serum.
as §1, §2, §3

In data set [4] the test system is HCT-15-LM1. The data set is described as above. To be noted: HCT-15-LM1 cells, wells coated at 30 μg/ml, 30 min 37° C. The class given is cell-based, human.
From the text: The colorectal cancer cell line HCT-15-LM1 was developed as follows. The cell culture was started with cancer cells from lung metastases which had developed after injection of human colorectal cancer HCT-15 cells into the bloodstream of a mouse. The inoculation procedure was then repeated with HCT-15-LM1 cells leading to the establishment of another metastatic cell line, HCT-15-LM2.
as §1
The wells were blocked with blocking buffer (0.5% BSA, 0.05% Tween20 in phosphate buffer saline (PBS). PBS was prepared as follows: 40 g of NaCl, 1 g of KCl, 7 g of Na2HPO4×2H2O and 1 g of KH2PO4 were dissolved in 1000 ml of deionized H2O). […]
as §3

Data set [5] deals with C8161T. The data set is described as above. To be noted: C8161T cells, wells coated at 30 μg/ml, 30 min 37° C. The class given is cell-based, human. The procedure:
The human melanoma cell line C8161 has been described previously by Welch et al. in Int. J. Cancer, 1991, 47: 227-237. A more metastatic cell line C8161T, called herein also “C8161T”, was developed by culturing cells from a subcutaneous melanoma tumor developed after inoculation of C8161 melanoma cells on the flank of a nude mouse. The cell line was cultured in DMEM medium adjusted to contain 2 mM L-glutamine, 1% penicillin/streptomycin, and 10% fetal bovine serum.
Preparation of plates for the assays. Wells of Reacti-Bind Maleimide activated clear strip plate (Pierce, Prod#. 15150) were coated with a peptide conjugate a*YGFVWGEE*-(Teg-E)2-EAT, Compound MJ013 prepared in Example 3, at a concentration of 30 μg/ml. The incubation was carried out overnight at 20° C. The binding buffer containing unbound peptide was re-moved from the wells. […]
as §3

Data set [6] has as its system HSC-3. Described as above. It counts as cell-based, human. To be noted: HSC-3 cells, wells coated at 30 μg/ml, 30 min 37° C. The procedure:
The human oral squamous cell carcinoma line HSC-3, called herein “HSC-3” (JCRB Cell Bank 0623, National Institute of Health Sciences, Japan) was cultivated in 1:1 DMEM and Ham's F 12 medium containing 10% FBS 1% penicillin/streptomycin, L-glutamate and sodium pyruvate and 0.4 ng/ml hydrocortisone.
as §1, §2, §3

A short description of data set [7]: Plasma stability of the peptide conjugates in human blood plasma/PBS (HPLC).
Method: The peptide conjugates (10-20 μg) was added to a human blood plasma/PBS mixture (1:1) in a total volume of 500 μl and incubated at 37° C. After incubation 100 μl per time point (0 and 240 min) was transferred to YM-10 (Microcon, cut-off 10000 MW; manufacturer Millipore), centrifuged (10000 RPM) 15 min at 4° C. 50 μl of the spin-through material was analyzed by HPLC.
HPLC: Waters 626 pump, 600S controller, Waters 996 photo diode array detector. Column: C18, 300 Å, 5 μm, 2.1×250 mm. Eluents for the non-conjugated functional peptides: A 0.1% TFA, B 0.075% TFA/100% ACN. Gradient: 0-100% B in 60 min. Flow: 180 μl/min. Loop: 50 μl.
Eluents for the functional peptide conjugates: Eluent A: 0.05 M ammonium acetate; B: 50% 0.05 M ammonium acetate/50% ACN. Gradient: 0-100% B in 60 min. Flow: 180 μl/min. Loop: 50 μl. One-minute fractions were collected and analyzed with MALDI-TOF.
Peptide mass: Bruker Ultraflex MALDI-TOF, N2-laser 337 nm, matrix saturated solution of α-cyano-4-hydroxycinnamic acid, reflector mode.
In data set [8] the test system is HCT-15 tumors. Briefly: Biodistribution of cystine- and lactam-bridged conjugates (Eu content) in HCT-15 tumor-bearing mice. It counts as in vivo, athymic-nu nude mice. The following applies: 4 nmol MJ018 vs 16 nmol MJ069 i.v., 15 min circulation. The procedure: The biodistribution of the targeting agents MJ018 (lactam-bridged; described in Example 4) and MJ069 (cystine-bridged; described below) comprising functional peptide YGFVWGE was compared in mice carrying primary tumors of HTC-15, a human colorectal cancer cell line.
For production of experimental tumors, 22.5 million (for MJ018), and 1 million (for MJ069) HCT-15 cells were injected subcutaneously into both flanks of athymic-nu nude mice (Harlan Laboratories). The human colorectal cancer HCT-15 cell line (ATCC: CCL-225), called herein also “HCT-15”, was cultured in RPMI 1640 medium with 2 mM L-glutamine adjusted to contain 1.5 g/L sodium bicarbonate, 4.5 g/L glucose, 10 mM HEPES, and 1.0 mM sodium pyruvate, 1% penicillin/streptomycin, 10% fetal bovine serum.
Tumors were harvested when they had reached a minimum weight of 0.1 g. […]
For determination of the Eu content of the tumors and control or gans, 0.05-0.2 g of tissue was transferred into lysis buffer (20 mM Tris-HCl, 150 mM NaCl, 1% Nonident P40, pH 7.5) and homogenised. The Eu-content was determined from tissue lysates prepared into Enhancement solution (Perkin Elmer Wallac Ltd., Turku, Finland) and transferred to DELFIA Micro titration strip plates (Perkin Elmer Wallac Ltd., Turku, Finland). Time-resolved fluorescence was measured after incubation with a Wallac 1420 VICTOR3™ V plate reader using a D615 nm filter.

As to “a*YGFVWGEE*-(Teg-E)2-EAT (YGFVWGEE[AEEEA]E[AEEEA]E-Cysteamide; lactam N-8; not fully specified (N-terminus)) [MJ013]”, the “cell binding to immobilized peptide conjugate (absorbance at 560 nm)” value in data set [1] was “significantly less binding”; in data set [2], “significantly less binding”; in data set [3], “bind selectively”; in data set [4] it was “bind selectively”; in data set [5] it was “bind selectively”; in data set [6] it was “bind selectively”.

Turning to “a*YGFVWGEE*-(Teg-E)2-AEM-AABz-DTPA-Eu (YGFVWGEE[AEEEA]E[AEEEA]E-{NHCH2CH2SCH2CO-AABz-DTPA′}; lactam N-8; not fully specified (N-terminus); reading uncertain; also: DTPA chelate of Eu) [MJ018]”, the “Observed compound peak heights prior to incubation” value in data set [7] (0 h, human blood plasma/PBS 1:1, 37° C.) was 100%. For the same substance, the “Observed compound peak heights after four hours” value in data set [7] (4 h, human blood plasma/PBS 1:1, 37° C.) was 100%. For the same substance, the “degradation during incubation in plasma” value in data set [7] (4 h incubation in human plasma) is recorded as “no degradation”. In data set [8], the “accumulation in tumor tissue (tissue-to-muscle Eu content), lactam- vs cystine-bridged” value is on record as “accumulated more strongly in the tumor tissue than the cystine-bridged conjugate MJ069”.
